Legend:
[1] = test system: primarily cultivated endothelial cells derived from bovine aortas; experiment: Test 2: functional assay, stimulation of intracellular cGMP production in endothelial cells; type: cell-based; conditions: for EC50: Bos taurus, Endothelial cell, production of intracellular cGMP, marker for NO production and release, radioimmunoassay; for stimulatory effect on cGMP after preincubation with a selective angiotensin-(1-7) receptor antagonist: preincubation with [D-Ala^7]-angiotensin-(1-7); for effect on the production of cGMP after preincubation with an AT1 receptor antagonist: preincubation with angiotensin II AT1 subtype antagonist, such as EXP3174; for effect on the production of cGMP after preincubation with an AT2 receptor antagonist: preincubation with angiotensin II AT2 subtype antagonist, such as PD 123,319
Description: The stimulatory effect of the compounds of formula (I) on the production of intracellular cGMP, which is a marker for the production and release of NO in endothelial cells, was measured on primarily cultivated endothelial cells derived from bovine aortas, as described, for example, in J. Pharmacol. Exp. Ther. (1992) 262:729-733, herein incorporated by reference.
After having been enzymatically digested (dispase II; Boehringer, Mannheim) from the bovine aorta, the endothelial cells were taken up in culture medium (Dulbecco's modified Eagle's Ham's F 12 medium 1:1 containing penicillin (10 U/L), streptomycin (10 ug/L), L-glutamine (1 mmol/L), glutathione and L-(+)-ascorbic acid (in each case 5 mg/L) and heat-inactivated fetal calf serum (20%)), washed once (centrifugation at 170×g, 10 min) and resuspended in culture medium. This cell suspension was seeded in 6-well plates (Nunc Intermed, Wiesbaden) (˜250 μg of protein or […] per well), with the wells then being filled with culture medium and the plates kept at 37° C. in an incubator which was moistened and gassed with 95% O2-5% CO2.
After confluence had been reached (6-8 days after seeding), the culture medium was removed and the cell monolayer was washed twice with warm HEPES/Tyrode's solution. After that, the cells were preincubated, at 37° C. for 15 min, in HEPES/Tyrode's solution containing IBMX (3-isobutyl-1-methylxanthine, 10^−4 mol/L, Serva, Heidelberg). The incubation was started by adding SOD (bovine erythrocyte superoxide dismutase, 3×10^−7 mol/L, Serva, Heidelberg) and the test substances of formula (I) at the given concentrations. After the appropriate incubation time, the incubation medium was aspirated and the cells which remained behind were immediately extracted in 1 N formic acid/acetone (v/v, 15:85) and scraped off. The resulting suspension was ultrasonicated (10 sec) and then centrifuged down (3000×g, 10 min). For the purpose of determining cGMP by means of radioimmunoassay (New England Nuclear, Boston, Mass.), the supernatant was lyophilized and the lyophilisate taken up in sodium acetate buffer (0.05 mol/L; pH 6.2). The content (pmol) of intracellular cGMP was related to mg of cell protein.

SMILES | melting point | also measured
CCNC(=O)NS(=O)(=O)c1sc(CC(C)C)cc1-c1ccc(CN(C(=O)c2ccccc2)[C@H](C(=O)OC)C(C)C)cc1 [Example 4, Methyl 2-N-benzoyl-2-N-[4-[2-(ethylaminocarbonylsulfonamido)-5-isobutyl-3-thienyl]benzyl]amino-3-methyl-L-butyrate] | 65 °C | EC50 [1]: 600 nM; stimulatory effect on cGMP after preincubation with a selective angiotensin-(1-7) receptor antagonist [1]: inhibited; effect on the production of cGMP after preincubation with an AT1 receptor antagonist [1]: not influenced; effect on the production of cGMP after preincubation with an AT2 receptor antagonist [1]: not influenced
CCNC(=O)NS(=O)(=O)c1sc(CC(C)C)cc1-c1ccc(CN(C(=O)c2ccccc2)[C@H](C(=O)OCC)C(C)C)cc1 [Example 5, Ethyl 2-N-benzoyl-2-N-[4-[2-(ethylaminocarbonylsulfonamido)-5-isobutyl-3-thienyl]benzyl]amino-3-methyl-L-butyrate] | 88 to 90 °C | –
CCNC(=O)NS(=O)(=O)c1sc(CC(C)C)cc1-c1ccc(CN(C(=O)c2ccccc2)[C@H](C(=O)O)C(C)C)cc1 [Example 6, 2-N-Benzoyl-2-N-[4-[2-(ethylaminocarbonylsulfonamido)-5-isobutyl-3-thienyl]benzyl]amino-3-methyl-L-butyric acid] | 149 °C | –
CCNC(=O)NS(=O)(=O)c1sc(CC(C)C)cc1-c1ccc(CN(C(C)=O)[C@H](C(=O)OC)C(C)C)cc1 [Example 9, Methyl 2-N-acetyl-2-N-[4-[2-(ethylaminocarbonylsulfonamido)-5-isobutyl-3-thienyl]benzyl]amino-3-methyl-L-butyrate] | 130 °C | EC50 [1]: 40 nM; stimulatory effect on cGMP after preincubation with a selective angiotensin-(1-7) receptor antagonist [1]: inhibited; effect on the production of cGMP after preincubation with an AT1 receptor antagonist [1]: not influenced; effect on the production of cGMP after preincubation with an AT2 receptor antagonist [1]: not influenced
CCNC(=O)NS(=O)(=O)c1sc(CC(C)C)cc1-c1ccc(CN(C(C)=O)[C@H](C(=O)OCC)C(C)C)cc1 [Example 10, Ethyl 2-N-acetyl-2-N-[4-[2-(ethylaminocarbonylsulfonamido)-5-isobutyl-3-thienyl]benzyl]amino-3-methyl-L-butyrate] | 81 °C | –
CCNC(=O)NS(=O)(=O)c1sc(CC(C)C)cc1-c1ccc(CN(C(C)=O)[C@H](C(=O)O)C(C)C)cc1 [Example 11, 2-N-Acetyl-2-N-[4-[2-(ethylaminocarbonylsulfonamido)-5-isobutyl-3-thienyl]benzyl]amino-3-methyl-L-butyric acid] | 136 °C | –
CCCCOC(=O)NS(=O)(=O)c1sc(CC(C)C)cc1-c1ccc(CN(C(=O)c2ccco2)[C@H](C(=O)O)C(C)C)cc1 [Example 13, 2-N-(2-Furanoyl)-2-N-[4-[2-(n-butyloxycarbonylsulfonamido)-5-isobutyl-3-thienyl]benzyl]amino-3-methyl-L-butyric acid] | 93 °C | –
CNC(=O)NS(=O)(=O)c1sc(CC(C)C)cc1-c1ccc(CN(C(=O)c2ccco2)[C@H](C(=O)OC)C(C)C)cc1 [Example 14, Methyl 2-N-(2-furanoyl)-2-N-[4-[2-(methylaminocarbonylsulfonamido)-5-isobutyl-3-thienyl]benzyl]amino-3-methyl-L-butyrate] | 84 °C | –
CNC(=O)NS(=O)(=O)c1sc(CC(C)C)cc1-c1ccc(CN(C(=O)c2ccco2)[C@H](C(=O)O)C(C)C)cc1 [Example 15, 2-N-(2-Furanoyl)-2-N-[4-[2-(methylaminocarbonylsulfonamido)-5-isobutyl-3-thienyl]benzyl]amino-3-methyl-L-butyric acid] | 134 °C | –
CCCCOC(=O)NS(=O)(=O)c1sc(CC(C)C)cc1-c1ccc(CN(C(=O)CCC(=O)O)[C@H](C(=O)O)C(C)C)cc1 [Example 17, 2-N-(3-Carboxypropionyl)-2-N-[4-[2-(n-butyloxycarbonylsulfonamido)-5-isobutyl-3-thienyl]benzyl]amino-3-methyl-L-butyric acid] | 66 °C | –
CNC(=O)NS(=O)(=O)c1sc(CC(C)C)cc1-c1ccc(CN(C(=O)CCC(=O)OC)[C@H](C(=O)OC)C(C)C)cc1 [Example 18] | 158 °C | –

From patent publication US6984660B2, “P-thienylbenzylamides as agonists of angiotensin-(1-7) receptors, and methods of their preparation and use” (Aventis Pharma Deutschland GmbH, priority 2001, dated 2006)
